Measurements from the supplement of paper PMC13380429.

What was measured:
[1] = system: Caco-2; assay: drug sensitivity score (DSS) for viability; higher = more toxic; extreme values may be limits of the assay; details: 72 h
[2] = system: HepG2; assay: as above; details: 72 h
[3] = system: Vero E6; assay: as above; details: 72 h
[4] = system: U2OS; assay: as above; details: 72 h
[5] = system: Calu-3; assay: as above; details: 72 h
[6] = system: Caco-2; assay: relative viability EC50 (midpoint between 100% and the lowest measured viability); higher = less toxic; details: 72 h
[7] = system: HepG2; assay: as above; details: 72 h
[8] = system: Vero E6; assay: as above; details: 72 h
[9] = system: U2OS; assay: as above; details: 72 h
[10] = system: Calu-3; assay: as above; details: 72 h
[11] = system: Caco-2; assay: cell viability relative to DMSO; higher = less toxic; details: 72 h
[12] = system: HepG2; assay: as above; details: 72 h
[13] = system: Vero E6; assay: as above; details: 72 h
[14] = system: U2OS; assay: as above; details: 72 h
[15] = system: Calu-3; assay: as above; details: 72 h
[16] = system: A549-ACE2; assay: drug-induced phospholipidosis relative to tamoxifen; higher = more phospholipidosis
[17] = system: A549-ACE2 infected with SARS-CoV-2; assay: morphology score (similarity to uninfected cells); higher = more like uninfected cells; details: 24 h
[18] = system: A549-ACE2 infected with SARS-CoV-2; assay: SARS-CoV-2 infection rate relative to DMSO; higher = more infection; details: 24 h
[19] = system: A549-ACE2 infected with SARS-CoV-2; assay: cell count relative to DMSO; higher = less toxic; details: 24 h

CCCC(=O)Nc1ncnc2c1ncn2[C@@H]1O[C@@H]2COP(=O)(O)O[C@H]2[C@H]1OC(=O)CCC [bucladesine]
Details	drug sensitivity score	relative viability EC50 [µM]
[1]	0	–
[2]	0	–
[3]	0	–
[4]	0	–
[5]	0	–
[6]	–	> 10
[7]	–	> 10
[8]	–	> 10
[9]	–	> 10
[10]	–	> 10

cell viability [%]
Details	[11]	[12]	[13]	[14]	[15]
1 nM	110	101	98.5	105	100
10 nM	101	101	104	94.8	92.9
100 nM	107	93.9	97.8	103	92.9
1000 nM	93.3	99	104	97.2	94.3
10000 nM	91.9	96	95.2	100	108

O=C(O)Cn1c2c(c3cc(F)ccc31)CN(C(=O)c1cccc3ccccc13)CC2 [setipiprant]
Details	drug sensitivity score	relative viability EC50 [µM]
[1]	0	–
[2]	0	–
[3]	0	–
[4]	0	–
[5]	0.2	–
[6]	–	> 10
[7]	–	> 10
[8]	–	> 10
[9]	–	> 10
[10]	–	> 10

cell viability [%]
Details	[11]	[12]	[13]	[14]	[15]
1 nM	91	98	94.2	101	91.9
10 nM	103	96.3	102	105	115
100 nM	103	108	97.3	102	93.1
1000 nM	95	101	99.9	104	98.7
10000 nM	99.1	102	102	98.4	86.5

CS(=O)(=O)OC[C@H](O)[C@@H](O)COS(C)(=O)=O [treosulfan]
Details	drug sensitivity score	relative viability EC50 [µM]
[1]	0	–
[2]	0	–
[3]	0	–
[4]	0	–
[5]	0	–
[6]	–	> 10
[7]	–	> 10
[8]	–	> 10
[9]	–	> 10
[10]	–	> 10

cell viability [%]
Details	[11]	[12]	[13]	[14]	[15]
1 nM	95.6	93.1	92.3	104	105
10 nM	96.4	93.6	100	94.7	104
100 nM	102	94.6	92.5	103	102
1000 nM	90.9	108	98.2	94	98.8
10000 nM	99.3	108	106	99.2	111

O=C(O)c1cccnc1Nc1cccc(C(F)(F)F)c1 [niflumic-acid]
Details	drug sensitivity score	relative viability EC50 [µM]
[1]	0	–
[2]	0	–
[3]	0	–
[4]	0	–
[5]	0	–
[6]	–	> 10
[7]	–	> 10
[8]	–	> 10
[9]	–	> 10
[10]	–	> 10

cell viability [%]
Details	[11]	[12]	[13]	[14]	[15]
1 nM	108	103	100	99.7	100
10 nM	98.5	101	96	98	90.9
100 nM	98.4	99.6	97.4	104	98.7
1000 nM	96.2	97.2	97.3	106	99.7
10000 nM	100	104	101	102	95.2

CN1[C@@H]2CC[C@H]1C[C@@H](OC(=O)N1Cc3ccccc3NC1=O)C2 [DAU-5884]
Details	drug sensitivity score	relative viability EC50 [µM]
[1]	0	–
[2]	0	–
[3]	0	–
[4]	0	–
[5]	0	–
[6]	–	> 10
[7]	–	> 10
[8]	–	> 10
[9]	–	> 10
[10]	–	> 10

cell viability [%]
Details	[11]	[12]	[13]	[14]	[15]
1 nM	93.3	105	101	97.2	96.5
10 nM	91.7	93.3	94.6	102	105
100 nM	89.5	94.5	97.9	94.4	98.1
1000 nM	97.3	110	96.8	100	99.3
10000 nM	92.7	97.3	91.3	100	94.4

C[C@@H](CN1CCC(Cc2ccccc2)CC1)[C@@H](O)c1ccc(O)cc1 [Ro-25-6981]
Details	drug sensitivity score	relative viability EC50 [µM]
[1]	0	–
[2]	0	–
[3]	0	–
[4]	0	–
[5]	0	–
[6]	–	> 10
[7]	–	> 10
[8]	–	> 10
[9]	–	> 10
[10]	–	> 10

cell viability [%]
Details	[11]	[12]	[13]	[14]	[15]
1 nM	97.1	93.9	103	99.1	97.4
10 nM	92.3	100	102	102	98.2
100 nM	86.9	102	103	96.5	89.1
1000 nM	94.4	101	107	96.8	95.8
10000 nM	94.3	102	99.8	100	107

COc1c(OCCCN2CCOCC2)ccc2c1N=C(NC(=O)c1cnc(N)nc1)N1CCN=C21 [copanlisib]
Details	drug sensitivity score	relative viability EC50 [µM]
[1]	5.7	–
[2]	6	–
[3]	2.9	–
[4]	2	–
[5]	6.8	–
[6]	–	1.73
[10]	–	1.26

drug-induced phospholipidosis [%], [16]
Details	0.3 µM	0.833333 µM	3.33333 µM	6.66667 µM	10 µM	30 µM
24 h	-3.17	-4.37	0.15	5.67	10.8	56.5
48 h	-1.4	-3.62	0.68	3.97	5.69	–
72 h	-0.924	-3.86	0.214	2.05	–	–

Details	SARS-CoV-2 infection rate, [18] [%]	cell count, [19] [%]	cell viability, [11] [%]	cell viability, [12] [%]	cell viability, [13] [%]	cell viability, [14] [%]	cell viability, [15] [%]	morphology score, [17]
1 nM	–	–	99.2	98.5	98.8	101	102	–
10 nM	–	–	98.7	109	105	96.2	93.1	–
0.1 µM	101	101	–	–	–	–	–	0.23
100 nM	–	–	94.6	101	96	98.2	95.4	–
0.3 µM	97	100	–	–	–	–	–	0.09
1 µM	90	98	–	–	–	–	–	0.35
1000 nM	–	–	86.9	71	89.8	96.9	73.4	–
3 µM	92	83	–	–	–	–	–	0.32
10000 nM	–	–	34.9	51.9	65.1	67.5	32.9	–
